The values that follow come from BindingDB's records for patent US20230364079 (Chengdu Hyperway Pharmaceuticals, 2023).

Each structure is given as a SMILES string.

Tyrosine-protein kinase BTK, sequence (Q06187 whole entry): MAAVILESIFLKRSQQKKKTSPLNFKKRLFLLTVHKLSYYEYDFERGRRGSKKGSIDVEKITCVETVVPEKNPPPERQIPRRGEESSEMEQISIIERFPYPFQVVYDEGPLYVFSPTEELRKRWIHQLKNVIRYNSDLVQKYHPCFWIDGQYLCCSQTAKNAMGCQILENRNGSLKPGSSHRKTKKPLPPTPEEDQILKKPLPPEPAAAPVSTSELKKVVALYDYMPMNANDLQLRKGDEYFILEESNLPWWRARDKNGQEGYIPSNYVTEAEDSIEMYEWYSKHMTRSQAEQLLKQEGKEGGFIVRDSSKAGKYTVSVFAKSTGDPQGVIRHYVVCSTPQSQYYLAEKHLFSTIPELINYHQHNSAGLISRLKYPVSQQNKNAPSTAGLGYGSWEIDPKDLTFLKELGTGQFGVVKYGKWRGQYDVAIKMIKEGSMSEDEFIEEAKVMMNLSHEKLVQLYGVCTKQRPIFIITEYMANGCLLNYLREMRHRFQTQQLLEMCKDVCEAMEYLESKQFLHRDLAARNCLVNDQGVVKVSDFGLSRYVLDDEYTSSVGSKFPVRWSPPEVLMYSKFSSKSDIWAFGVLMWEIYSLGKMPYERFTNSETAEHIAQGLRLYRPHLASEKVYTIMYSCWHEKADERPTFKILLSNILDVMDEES

This test has as its target Tyrosine-protein kinase BTK (Homo sapiens, UniProt Q06187). The experiment in a line: BTK Kinase Activity Inhibition Test in Vitro.
As a reminder, the IC50 is the midpoint of a concentration-inhibition curve. A high value points to weaker potency. For the molecule `Nc1nccn2c(C3CCC(CO)OC3)nc(-c3ccc(Oc4cccc(OC(F)(F)F)c4F)cc3F)c12` (stereo unspecified) [US20230364079, Example 13], the IC50 was < 5 nM. For `Nc1ncc(Cl)n2c(C3CCC(CO)OC3)nc(-c3ccc(Oc4cccc(OC(F)(F)F)c4F)cc3)c12` (stereo unspecified) [US20230364079, Example 14], the IC50 is < 5 nM. As to `COc1cccc(Oc2ccc(-c3nc(C4CCC(CO)OC4)n4c(Cl)cnc(N)c34)cc2)c1F` (stereo unspecified) [US20230364079, Example 12], the IC50 was < 5 nM. As to `Nc1nccn2c(C3CCC(CO)OC3)nc(-c3ccc(Oc4cccc(Cl)c4F)cc3)c12` (stereo unspecified) [US20230364079, Example 9], the IC50 is < 5 nM. `Nc1nccn2c(C3CCC(CO)OC3)nc(-c3ccc(Oc4cccc(OC(F)(F)F)c4F)cc3)c12` (stereo unspecified) [US20230364079, Example 6]: the IC50 is < 5 nM. On to `COc1cccc(Oc2ccc(-c3nc(C4CCC(CO)OC4)n4c(Cl)cnc(N)c34)c(F)c2)c1F` (stereo unspecified) [US20230364079, Example 11], for which the IC50 was < 5 nM.
